Biological target: T1, SgGAPDH (Streptococcus gordonii, UniProt Q68AZ3)
T1 construct: gene GAPDH
Assay: biochemical

T1 sequence (Q68AZ3 entry or part of it): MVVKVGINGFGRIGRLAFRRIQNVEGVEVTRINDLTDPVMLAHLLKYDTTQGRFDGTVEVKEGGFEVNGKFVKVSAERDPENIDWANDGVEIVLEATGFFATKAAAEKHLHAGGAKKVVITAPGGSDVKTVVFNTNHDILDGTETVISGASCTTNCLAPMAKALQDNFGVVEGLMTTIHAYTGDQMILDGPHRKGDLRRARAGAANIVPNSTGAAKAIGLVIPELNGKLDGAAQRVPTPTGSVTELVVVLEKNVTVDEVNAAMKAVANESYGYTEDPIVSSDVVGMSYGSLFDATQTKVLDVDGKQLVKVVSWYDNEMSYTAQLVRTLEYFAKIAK

C=CC1=C(C)C2=Cc3c(C=C)c(C)c4[n]3[Fe]([Cl])[n]3c(c(C)c(CCC(=O)O)c3=CC3=NC(=C4)C(C)=C3CCC(=O)O)=CC1=N2 [Fe(III)heme] was tested, and the Kd was 1700 nM.

Source: PMC7312356 (International Journal of Molecular Sciences, 2020)
